Measurements: ChEMBL document CHEMBL4342405, “Clinical candidates modulating protein-protein interactions: The fragment-based experience” (Eur J Med Chem, 2019)
Each block holds one compound with its values, some of them ahead of it.

Tests used:
[1] = Oral bioavailability in mouse; format: ADME, organism-based; details: in vivo
[2] = Half life in mouse; format: ADME, organism-based; details: in vivo
[3] = Half life in dog; format: ADME, Canis lupus familiaris; details: in vivo
[4] = Half life in rat; format: ADME; details: in vivo
[5] = Oral bioavailability in dog; format: ADME, organism-based, Canis lupus familiaris; details: in vivo
[6] = Half life in monkey; format: ADME, Macaca mulatta; details: rhesus monkey, in vivo
[7] = Oral bioavailability in rat; format: ADME, organism-based; details: in vivo
[8] = Oral bioavailability in monkey; format: ADME, organism-based, Macaca mulatta; details: rhesus monkey, in vivo
[9] = Toxicity in mouse xenografted with human haematological tumor at 12.5 mg/kg, po; format: organism-based
Bcl-2-like protein 1 [10] = biological target: T1, Bcl-2-like protein 1 (Homo sapiens, UniProt Q07817); assay: Binding affinity to BCL-XL (unknown origin) by 15N HSQC NMR analysis
T1 sequence (Q07817 whole entry): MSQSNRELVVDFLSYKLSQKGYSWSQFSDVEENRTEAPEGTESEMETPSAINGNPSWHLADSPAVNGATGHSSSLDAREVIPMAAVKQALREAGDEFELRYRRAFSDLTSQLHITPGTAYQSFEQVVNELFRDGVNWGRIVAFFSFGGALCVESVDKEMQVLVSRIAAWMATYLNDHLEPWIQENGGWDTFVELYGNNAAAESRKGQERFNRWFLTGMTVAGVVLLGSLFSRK

Bcl-2-like protein 2 = biological target: T2, Bcl-2-like protein 2 (Homo sapiens, UniProt Q92843); assay: Inhibition of BCL-W (unknown origin) by fluorescence polarization assay
T2 sequence (Q92843 whole entry): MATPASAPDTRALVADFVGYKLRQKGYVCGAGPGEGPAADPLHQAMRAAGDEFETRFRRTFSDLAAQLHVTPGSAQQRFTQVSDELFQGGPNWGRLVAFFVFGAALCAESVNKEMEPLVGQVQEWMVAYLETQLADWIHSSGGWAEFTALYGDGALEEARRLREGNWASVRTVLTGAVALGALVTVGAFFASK

[11] = Half life in human; format: ADME
Bcl-2-like protein 1 [12] = biological target: T1, Bcl-2-like protein 1; assay: Inhibition of BCL-XL (unknown origin) incubated for 15 mins by fluorescence polarization assay

SMILES: CC1(C)CCC(CN2CCN(c3ccc(C(=O)NS(=O)(=O)c4ccc(NCC5CCOCC5)c([N+](=O)[O-])c4)c(Oc4cnc5[nH]ccc5c4)c3)CC2)=C(c2ccc(Cl)cc2)C1 [VENETOCLAX]
EC50 [9]: 5500 nM

SMILES: Oc1ccc(-c2ccccc2)cc1
Kd (Bcl-2-like protein 1 [10]): 6 mM

SMILES: CCS(=O)(=O)Nc1ccc(Oc2ccc(F)cc2F)c(-c2cn(C)c(=O)c3[nH]ccc23)c1 [MIVEBRESIB]
half-life [11]: 1500 min

SMILES: O=C(O)c1ccc(-c2ccc(F)cc2)cc1/C=C/c1cccc(-c2ccccc2)c1
Ki (Bcl-2-like protein 1 [12]): 1400 nM

More lines, main results first:

bioavailability [1]: 20%
half-life [2]: 240 to 384 min
half-life [3]: 240 to 384 min
half-life [4]: 240 to 384 min
bioavailability [5]: 20%
half-life [6]: 240 to 384 min
bioavailability [7]: 20%
bioavailability [8]: 20%
SMILES: CN(C)CC[C@H](CSc1ccccc1)Nc1ccc(S(=O)(=O)NC(=O)c2ccc(N3CCN(Cc4ccccc4-c4ccc(Cl)cc4)CC3)cc2)cc1[N+](=O)[O-] [ABT 737]

Ki (Bcl-2-like protein 2): 245 nM
SMILES: CC1(C)CCC(c2ccc(Cl)cc2)=C(CN2CCN(c3ccc(C(=O)NS(=O)(=O)c4ccc(N[C@H](CCN5CCOCC5)CSc5ccccc5)c(S(=O)(=O)C(F)(F)F)c4)cc3)CC2)C1 [NAVITOCLAX]
EC50 [9]: 83 nM
